Data published in ChEMBL document CHEMBL3507680, “University of Dundee, Gates Library screen for HepG2 cell viability”.

Experiment: Human HepG2 cell viability assay in 384 well format
Type: toxicity, cell-based
Design: dose 125 nL, time 70.5 hour; concentration not given beside the values
Details: HepG2 cells, read-out: Inhibition

SMILES	cytotoxicity at 70.5 h [%]
O=C(c1nc(Cc2c[nH]c3ccccc23)no1)N1CCCCC1	-7.41
CCCc1nc2c(c(C)c(C)n2CCN(C)C)c(N)c1CC	3.64
Cc1cc(C)n2c(CCCNS(=O)(=O)c3cccs3)nnc2n1	-10.2
CCc1c(-c2ccccc2)nc2c(c(C)c(C)n2CCN(C)C)c1N	15.2
COC(=O)CNC(=O)Cn1ccc2ccc(F)cc21	-3.86
Cc1c(-c2ccccc2)nc2c(c(C)c(C)n2CCN(C)C)c1N	13.6
COc1cccc(-c2nc(C)c(C(=O)N[C@H](CO)CC(C)C)s2)c1	-22.7
CC(C)Cc1nc(OCC(N)=O)c(C#N)c2c1CCCC2	-9.41
COCCNC(=O)Cn1ccc2ccc(F)cc21	-3.63
CC[C@H](C)[C@H](NC(=O)Cn1ccc2ccc(F)cc21)C(=O)OC	-1.27
O=C1CCCC2=C1C(c1ccc(F)cc1F)Nc1nonc1N2 (centres undefined)	12.1
CC(C)CNC(=O)c1nc(COc2ccc3c(c2)OCO3)no1	-7.9
CC[C@H](C)[C@H](NC(=O)c1cccc(-n2cnnn2)c1)C(=O)OC	-11
O=C(Cc1csc(-c2ccccc2F)n1)NCc1ccc(C(=O)O)cc1	-10.6
CC(C)CC(NC(=O)c1ccco1)c1nnc2ccccn12 (centres undefined)	-24.3
O=C(NCCN1CCOCC1)c1nc2ccccc2c(=O)[nH]1	-23.1
CNC(=O)c1nc(COc2ccc3c(c2)OCO3)no1	-9.82
CCC(C)[C@H](NC(=O)c1ccc(F)cc1-n1cnnn1)C(=O)OC (some centres undefined)	-10.7
CC(=O)Nc1ccc(OCc2noc(C(=O)N3CCCCC3)n2)cc1	-18.1
CC(C)NC(=O)Cc1cnc(-n2cccc2)s1	-24.2
Cn1nnnc1SC1CCc2ccccc2NC1=O (centres undefined)	-24.7
O=C(NC1CC1)c1nc(COc2ccc3c(c2)OCO3)no1	-9.12
COCCNC(=O)c1cc(-n2cccc2)ccc1Cl	-23.7

SMILES	cytotoxicity at 70.5 h [%]
CN1C(=O)C2(CC(=O)Nc3[nH]ncc32)c2cc(F)ccc21 (centres undefined)	-19.4
COc1ccc(N2Cc3nc(=O)n(Cc4cccc(F)c4)n3C2=O)cc1	-13
O=S1(=O)CCC(S(=O)(=O)c2cccc(S(=O)(=O)N3CCCCCC3)c2)C1 (centres undefined)	-10.9
CN1C(=O)C2(CC(=O)Nc3c2cnn3C(C)(C)C)c2c(Cl)cccc21 (centres undefined)	-19.1
CS(=O)(=O)N(Cc1ccon1)c1ccc2c(c1)OCO2	-6.03
Cc1cc(C(F)(F)F)cc(=O)n1CCn1cc(Cl)cn1	-11.3
Cc1cccc(N2CCC3(CCCN3Cc3c(C)nn(C)c3C)CC2)n1	-3.1
O=C1N(c2ccc(Br)cc2)Cc2n[nH]c(=O)n21	23.8
Cc1ccc(-c2ccc(Cl)nn2)cc1S(=O)(=O)N1CCOCC1	-5.38
CC(C)N1CC(n2ccnc2-c2nccn2C)CC1=O (centres undefined)	-7.49
COc1ccc(-n2ncc(C(C)NC3CCSCC3)c2C)cc1 (centres undefined)	-4.41
CC(C)(C)OC(=O)NC1CCCN(Cc2cccs2)C1 (centres undefined)	6.34
CCn1ccnc1CN1C[C@@H](NC(=O)C2CC2)[C@H](c2ccc(C)cc2)C1	23.8
Cc1nc2ccccc2n1Cc1cc(C(=O)N2C[C@@H](C)O[C@@H](C)C2)no1	-8.42
CCCC1(CO)CCCN(C(=O)CCCn2nc(C)cc2C)C1 (centres undefined)	-0.556
CN(c1ccc(C(=O)NCCCN2CCCCC2)c(Cl)c1)S(C)(=O)=O	-2.79
Fc1ccc(-c2noc3c2CN(CC2CC2)CC3)cc1F	-29.6
CN(C)CCCNC(=O)c1ccc(N(C)S(C)(=O)=O)cc1Cl	-5.53
CCC(NC(=O)C1CCN(S(C)(=O)=O)CC1)c1ccc(C)c(C)c1 (centres undefined)	-4.17
CCCNCc1ccc(-c2cc(N)nc3[nH]ccc23)cc1	-0.725
CC(C)(C)OC(=O)NC1CCCN(Cc2cccc(O)c2)C1 (centres undefined)	-4.69
CCOc1ccccc1C(C(=O)O)N(C)Cc1nc(C)c[nH]1 (centres undefined)	-6.68
CCC(C)N(Cc1cc(C)n[nH]1)Cc1ccccc1Cl (centres undefined)	-10.8

SMILES	cytotoxicity at 70.5 h [%]
O=C1NC[C@@]2(C(=O)O)CN(Cc3cccc(Oc4ccccc4)c3)C[C@@H]12	-4.3
O=C(NCc1cc2n(n1)CCCNC2)C1(c2ccc(Cl)cc2)CCC1	1.64
Cc1nnc(CCNC(=O)C2CC(=O)N(C(C)(C)C)C2)s1 (centres undefined)	26.2
O=C1COc2cc(C(=O)NS(=O)(=O)c3ccc(F)cc3)ccc2N1	-17.6
O=C1COc2ccc(C(=O)NS(=O)(=O)c3cc(F)ccc3F)cc2N1	-8.54
COc1ccc(OCCN2CCN(Cc3nccn3C)CC2)cc1	12.8
CCN(CC1CCOC1)C(=O)c1cc(F)ccc1N1CCN(C)CC1 (centres undefined)	46
CCOCC1CCCN(C(=O)NCc2ccc(-c3ccn[nH]3)cc2)C1 (centres undefined)	12.5
CSC(C)C(=O)N1CCCN(c2ncccc2C#N)CC1 (centres undefined)	12.4
COc1ccc(C(=O)N2CCCC2c2cnn(C)c2)cn1 (centres undefined)	9.21
CCN(CC1CCOC1)C(=O)c1ccc(N2CCOCC2)c(F)c1 (centres undefined)	-6.24
Cc1occc1C(=O)N1CCCN(Cc2nccn2C)CC1	-8.79
N#Cc1ccccc1N1CCCN(C(=O)NCc2cc[nH]n2)CC1	-6.85
CCN(CC1CCOC1)C(=O)c1ccccc1S(C)(=O)=O (centres undefined)	-4.17
CCOc1ccccc1N1CCN(C(=O)NCc2cc[nH]n2)CC1	18.3
CC(C)(C)c1ncc(C(=O)NCCNC(=O)c2ccco2)s1	-6.05
CC(C)(C)c1ncc(C(=O)NCCNC(=O)c2ccc(O)cc2)s1	-7.09
CC(C)(C)c1ncc(C(=O)NCCNS(C)(=O)=O)s1	-7.98
NC(=O)CC1CCN(C(=O)NCc2ccc(-c3ccn[nH]3)cc2)CC1	-11.3
CN(CCCOc1ccccc1)Cc1nc2c(cnn2C)c(=O)[nH]1	-1.06
COC(=O)c1ccc(N2CCN(CCS(C)(=O)=O)C(C)C2)cc1 (centres undefined)	-3.48
CCN1CCN(C(=O)NCc2cc[nH]n2)CC1	-8.83
COc1c(CNC2CCN(c3ncccn3)CC2)c(C)nn1C	-8.59

SMILES	cytotoxicity at 70.5 h [%]
Cn1cc(C2CCCN2C(=O)c2ccc(OCC3CC3)nc2)cn1 (centres undefined)	-4.15
Cn1ccnc1CN1CCCN(C(=O)c2ccc3ccccc3c2)CC1	1.95
CN(C)c1cc(C(=O)N2CCCN(Cc3nccn3C)CC2)ccn1	14.3
Cc1cccc(NS(=O)(=O)c2cc3c(c(C(=O)O)c2)OCCO3)c1	-7.67
CC(C)Oc1ccc(C(=O)N2CCCC2c2cnn(C)c2)cn1 (centres undefined)	-3
CC(C)c1ncc2c(n1)CN(CC(=O)Nc1ccncc1)CC2	-7.98
Cn1ccnc1CN1CCCN(C(=O)c2ccc3cc[nH]c3c2)CC1	-7.08
Cc1ncc2c(n1)CN(CC(=O)Nc1nccs1)CC2	-10.4
CN(CC(=O)Nc1ccncc1)C1CCCN(c2cccnn2)C1 (centres undefined)	-3.61
O=C(NCCOc1ccc2c(c1)OCO2)C1CC(=O)N(C2CC2)C1 (centres undefined)	3.82
CSc1nccn1-c1cccc(C(=O)NCCN2CCS(=O)(=O)CC2)c1	0.708
CSc1nccn1-c1cccc(C(=O)NCC(F)(F)F)c1	-0.984
CCC1CCCCN1Cc1nc2c(cnn2C)c(=O)[nH]1 (centres undefined)	-0.935
CCCNC(=O)C(C)N1CCC(C(=O)Nc2cnn(CC)c2)CC1 (centres undefined)	-4.58
CCn1cc(NC(=O)C2CCN(CC(=O)NCC(C)C)CC2)cn1	-5.15
Cc1cc(C)n(CC2CN(c3ccc(C#N)cn3)CCO2)n1 (centres undefined)	-3.22
NC(=O)CC1CCCCN1C(=O)c1cccc(C(F)(F)F)c1 (centres undefined)	-0.919
Cc1ccc(C(=O)N2CCCCC2CNC(N)=O)cc1F (centres undefined)	0.819
Cc1cccc(-c2nc(CNC3CCc4ncnn4C3)no2)c1 (centres undefined)	-4.91
c1ccc(-c2nc(CNC3CCc4ncnn4C3)no2)cc1 (centres undefined)	-3.91
Cc1nccn1C1CCCN(C(=O)c2ccc(N(C)C)nn2)C1 (centres undefined)	-4.18
Cc1nccn1C1CCCN(C(=O)c2ccc(-n3cccn3)nc2)C1 (centres undefined)	0.896
COc1ccccc1OCCC(=O)N1CCCC1Cn1cccn1 (centres undefined)	2.97

SMILES	cytotoxicity at 70.5 h [%]
O=C(CCOc1ccc(F)cc1)N1CCCC1Cn1cccn1 (centres undefined)	-2.78
Cn1cc(-c2nc(C(=O)N3CCCC3Cn3cccn3)cs2)cn1 (centres undefined)	-4.01
CCCc1n[nH]c(C2CN(C(=O)c3n[nH]c4ccccc34)CCO2)n1 (centres undefined)	-6.7
CCCc1n[nH]c(C2CN(C(=O)c3ccc4c(c3)COC4)CCO2)n1 (centres undefined)	-4.22
CCCc1n[nH]c(C2CN(C(=O)c3ccc(C)[nH]c3=O)CCO2)n1 (centres undefined)	15.4
CSc1nccn1-c1ccc(C(=O)NCC2CC2)cc1	-4.68
O=C(c1csc(C2CC2)n1)N1CCCC1Cn1cccn1 (centres undefined)	0.252
COCCN1CCC(CNC(=O)C2(c3cccc(C)c3)CC2)C1 (centres undefined)	17.2
COc1c(CNCCC(=O)NC2CCCC2)c(C(C)C)nn1C	0.44
CCOc1ccccc1C1=CCN(C(=O)C2CCN(C)C(=O)C2)CC1 (centres undefined)	16.3
CCc1cnc(CN(C(C)=O)C2CCN(CCc3ccccn3)C2)o1 (centres undefined)	1.82
Cc1cccc(OCCNC(=O)CN2CCCC2Cn2cncn2)c1 (centres undefined)	-4.68
O=C(CN1CCCCC1Cn1cncn1)NCCOc1ccccc1 (centres undefined)	-1.79
CCOc1cc(C(=O)N2CCCC(c3noc(CC)n3)C2)ccn1 (centres undefined)	-2.83
COc1ccc(C(=O)N(Cc2cnn(C)c2)C(C)C)cc1OC(F)F	-3.59
CCOc1cc(C(=O)N2CCCC(c3nc(C)c(C)s3)C2)ccn1 (centres undefined)	3.48
Cc1nc(C2CCCN2Cc2ccc(S(=O)(=O)N(C)C)o2)no1 (centres undefined)	-5.97
CC(C)CCc1nc(CN2CCOC(Cn3cncn3)C2)cs1 (centres undefined)	-2.95
O=C(CS(=O)(=O)Cc1cc(Cl)c2c(c1)OCO2)N1CCCCCC1	-2.51
COc1ccc(C2=CCN(C(=O)C3CCS(=O)(=O)C3)CC2)cc1 (centres undefined)	19.4
CNS(=O)(=O)c1ccc(C(=O)N2CCCC2c2ccncc2)o1 (centres undefined)	-2.81
Cc1cc(C2CCCN2Cc2ccc(S(=O)(=O)N(C)C)o2)on1 (centres undefined)	-1.52
